One series concerns the target T1, rat calcitonin receptor (Rattus norvegicus, UniProt P32214).
T1 construct: expressed in transfected cells; host or cells: BHK tk'ts 13 (transient, FuGENE 6)
T1 sequence (P32214 25-479 isoform P32214-2 limits assumed): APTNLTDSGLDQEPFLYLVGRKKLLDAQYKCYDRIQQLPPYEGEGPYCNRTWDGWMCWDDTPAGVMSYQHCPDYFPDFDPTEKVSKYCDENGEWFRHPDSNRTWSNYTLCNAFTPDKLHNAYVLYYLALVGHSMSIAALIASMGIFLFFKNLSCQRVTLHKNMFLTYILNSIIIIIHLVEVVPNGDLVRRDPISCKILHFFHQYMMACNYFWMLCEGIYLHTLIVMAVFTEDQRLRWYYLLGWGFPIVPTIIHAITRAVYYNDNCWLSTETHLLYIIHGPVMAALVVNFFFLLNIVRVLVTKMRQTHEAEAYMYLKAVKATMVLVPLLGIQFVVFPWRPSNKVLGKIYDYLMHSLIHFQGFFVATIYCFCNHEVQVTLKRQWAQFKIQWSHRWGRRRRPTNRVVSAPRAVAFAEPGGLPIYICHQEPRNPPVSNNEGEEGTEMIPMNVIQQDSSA
In words: Assay (VIII) binding to the rat calcitonin receptor. Particulars: membranes; read-out: rCT-R binding IC50. The method, boiled down:
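Competition binding on membranes from BHK tk'ts 13 cells transiently transfected with rat calcitonin receptor, otherwise run as the human receptor assay. Plates washed in cold HBSS, lysed in 0.1 M NaOH/1% SDS and scintillation-counted. IC50 from one-site competition fit as affinity measure.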

The target of series [1] is T2, human calcitonin (a) receptor, BHK570 cells (Homo sapiens, UniProt P30988).
T2 construct: host or cells: BHK570
T2 sequence (P30988 25-474): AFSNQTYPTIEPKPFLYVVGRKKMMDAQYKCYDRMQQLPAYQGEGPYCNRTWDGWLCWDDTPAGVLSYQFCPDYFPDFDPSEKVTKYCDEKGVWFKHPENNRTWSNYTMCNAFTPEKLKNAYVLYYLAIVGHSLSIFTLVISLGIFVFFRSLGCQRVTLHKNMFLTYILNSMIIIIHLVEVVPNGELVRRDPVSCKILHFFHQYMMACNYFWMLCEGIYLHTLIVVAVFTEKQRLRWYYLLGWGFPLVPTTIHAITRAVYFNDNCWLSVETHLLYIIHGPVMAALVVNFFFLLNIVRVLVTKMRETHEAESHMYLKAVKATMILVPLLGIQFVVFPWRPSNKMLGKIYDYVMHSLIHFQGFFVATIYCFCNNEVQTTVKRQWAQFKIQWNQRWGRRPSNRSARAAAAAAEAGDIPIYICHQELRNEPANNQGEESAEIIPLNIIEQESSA
In words: Assay (II)a functional CRE-luciferase assay with albumin, human calcitonin receptor. Format: cell-based. Particulars: Tested with HSA; read-out: hCTR funct. EC50. The method, boiled down:
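BHK570 cells stably carry a CRE-luciferase reporter and the calcitonin receptor; co-transfected RAMP-3 gives the amylin 3(a) receptor line. Cells were treated for 3 h at 37 °C in DMEM with 10% FBS and 10 mM Hepes, pH 7.4. cAMP-driven luciferase was read by LucLite luminescence after 30 min at RT.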

A short description of series [2]: Assay (IV) determination of solubility. The series is classed as physicochemical. On the procedure: Assay (IV)—Determination of Solubility
The mimylin peptide was dissolved in water at ˜500 nmol/ml and mixed 1:1 with a series of buffers (100 mM glycylglycine pH 3.0, 100 mM glycylglycine pH 4.0, 100 mM glycylglycine pH 5.0, 100 mM bistrispropane pH 6.0, 100 mM bistrispropane pH 6.5, 100 mM bistrispropane pH 7.0, 100 mM bistrispropane pH 7.5, 100 mM bistrispropane pH 8.0).

Experimental findings from patent US9593149B2, “Amylin and calcitonin receptor agonist” (Novo Nordisk A/S, priority 2014, dated 2017) are described below.

Converted amounts (≈) assume the structure as drawn. Numbered stars: 1 amine (or outer) side, 2 acyl side, 3 side chain; on linkers, the order of the positions; unused ones are H or OH. Side chains are listed from the residue outwards. Peptide text beside a SMILES is read from it. * marks the point of attachment. C20 diacid = O=C(O)CCCCCCCCCCCCCCCCCCC(=O)*; C18 diacid = O=C(O)CCCCCCCCCCCCCCCCC(=O)*; γGlu = O=C(O)[C@H](CCC(=O)[*:2])N[*:1]

The term IC50 denotes the concentration that gives 50% inhibition. A word on the EC50: it is the concentration giving half of the maximal effect. The term solubility denotes the dissolved amount per volume that the medium holds. The low end stands for a poorly soluble substance, the high end for a readily soluble substance. Take `CC(C)C[C@H](NC(=O)[C@H](CCCNC(=N)N)NC(=O)CNC(=O)[C@H](CC(C)C)NC(=O)[C@@H](NC(=O)[C@H](C)NC(=O)[C@@H](NC(=O)[C@H](CO)NC(=O)[C@H](CC(C)C)NC(=O)[C@H](CCC(=O)O)NC(=O)[C@H](CO)NC(=O)[C@H](C)NC(=O)CC[C@H](NC(=O)CCCCCCCCCCCCCCCCCCC(=O)O)C(=O)O)[C@@H](C)O)C(C)C)C(=O)N[C@@H](CO)C(=O)N[C@@H](CCC(N)=O)C(=O)N[C@@H](CCC(=O)O)C(=O)N[C@@H](CC(C)C)C(=O)N[C@@H](Cc1c[nH]cn1)C(=O)N[C@@H](CCC(=O)O)C(=O)N[C@@H](CC(C)C)C(=O)N[C@@H](CCC(N)=O)C(=O)N[C@H](C(=O)N[C@@H](Cc1ccc(O)cc1)C(=O)N1CCC[C@H]1C(=O)N[C@@H](CCCNC(=N)N)C(=O)N[C@H](C(=O)N[C@@H](CCC(=O)O)C(=O)N[C@H](C(=O)NCC(=O)N[C@@H](CO)C(=O)NCC(=O)N[C@H](C(=O)N[C@@H](Cc1ccc(O)cc1)C(N)=O)[C@@H](C)O)[C@@H](C)O)[C@@H](C)O)[C@@H](C)O` [compound 114, [N-terminal(C20 diacid-gGlu), des1, 9V, 15Q, 21Q, 23Y, 30S, 31G, 32T, 33Y]mimylin]: at rat calcitonin receptor, the IC50 was 0.021 nM. The EC50 in series [1] worked out at 0.097 nM. Also, the solubility at 18 h was at least 200 µM in series [2] (bistrispropane buffer, pH 6.5); at least 200 µM in series [2] (bistrispropane buffer, pH 7.5); at least 200 µM in series [2] (bistrispropane buffer, pH 6.0); at least 200 µM in series [2] (bistrispropane buffer, pH 7.0); at least 200 µM in series [2] (bistrispropane buffer, pH 8.0); at least 200 µM in series [2] (glycylglycine buffer, pH 3.0). For the same molecule, the solubility at 18 h in series [2] (glycylglycine buffer, pH 4.0) is 65 µM (≈ 257 µg/mL); in series [2] (glycylglycine buffer, pH 5.0), 7 µM (≈ 27.6 µg/mL).

Regarding `CC(C)C[C@H](NC(=O)[C@H](C)NC(=O)[C@H](C)NC(=O)[C@@H](NC(=O)[C@H](CO)NC(=O)[C@H](CC(C)C)NC(=O)[C@H](CCC(=O)O)NC(=O)[C@H](CO)NC(=O)[C@H](C)NC(=O)[C@H](C)NC(=O)CC[C@H](NC(=O)CCCCCCCCCCCCCCCCCCC(=O)O)C(=O)O)[C@@H](C)O)C(=O)NCC(=O)N[C@@H](CCCNC(=N)N)C(=O)N[C@@H](CC(C)C)C(=O)N[C@@H](CO)C(=O)N[C@@H](C)C(=O)N[C@@H](CCC(=O)O)C(=O)N[C@@H](CC(C)C)C(=O)N[C@@H](Cc1c[nH]cn1)C(=O)N[C@@H](CCC(=O)O)C(=O)N[C@@H](CC(C)C)C(=O)N[C@@H](C)C(=O)N[C@H](C(=O)N[C@@H](Cc1ccc(O)cc1)C(=O)N1CCC[C@H]1C(=O)N[C@@H](CCCNC(=N)N)C(=O)N[C@H](C(=O)N[C@@H](CCC(=O)O)C(=O)N[C@H](C(=O)NCC(=O)N[C@@H](CO)C(=O)NCC(=O)N[C@@H](CO)C(=O)N1CCC[C@H]1C(N)=O)[C@@H](C)O)[C@@H](C)O)[C@@H](C)O` [compound 57, [N-terminal(C20 diacid-gGlu), 1A, 23Y, 30S, 31G]mimylin] ({C20 diacid-γGlu}-AASELSTAALGRLSAELHELATYPRTETGSGSP-NH2), the concentration for half-maximal inhibition (IC50) at rat calcitonin receptor was found to be 0.044 nM. Further, the EC50 in series [1] turned out to be 0.051 nM. In addition, the solubility at 18 h was at least 200 µM in series [2] (bistrispropane buffer, pH 6.5); at least 200 µM in series [2] (bistrispropane buffer, pH 7.5); at least 200 µM in series [2] (bistrispropane buffer, pH 6.0); at least 200 µM in series [2] (bistrispropane buffer, pH 7.0); at least 200 µM in series [2] (bistrispropane buffer, pH 8.0); at least 200 µM in series [2] (glycylglycine buffer, pH 3.0). Further, the solubility at 18 h in series [2] (glycylglycine buffer, pH 4.0) was at least 200 µM; in series [2] (glycylglycine buffer, pH 5.0) it was at least 200 µM.

As to `CC(C)C[C@H](NC(=O)[C@H](C)NC(=O)[C@H](C)NC(=O)[C@@H](NC(=O)[C@H](CO)NC(=O)[C@H](CC(C)C)NC(=O)[C@H](CCC(=O)O)NC(=O)[C@H](CO)NC(=O)[C@H](C)NC(=O)[C@H](CCC(=O)O)NC(=O)CCCCCCCCCCCCCCCCC(=O)O)[C@@H](C)O)C(=O)NCC(=O)N[C@@H](CCCNC(=N)N)C(=O)N[C@@H](CC(C)C)C(=O)N[C@@H](CO)C(=O)N[C@@H](C)C(=O)N[C@@H](CCC(=O)O)C(=O)N[C@@H](CC(C)C)C(=O)N[C@@H](Cc1cnc[nH]1)C(=O)N[C@@H](CCC(=O)O)C(=O)N[C@@H](CC(C)C)C(=O)N[C@@H](C)C(=O)N[C@H](C(=O)N[C@@H](CC(C)C)C(=O)N1CCC[C@H]1C(=O)N[C@@H](CCCNC(=N)N)C(=O)N[C@H](C(=O)N[C@@H](CCC(=O)O)C(=O)N[C@H](C(=O)NCC(=O)N1CCC[C@H]1C(=O)N[C@@H](CCC(=O)O)C(=O)N[C@@H](CO)C(=O)N1CCC[C@H]1C(N)=O)[C@@H](C)O)[C@@H](C)O)[C@@H](C)O` [Ex. #2, [N-terminal(C18 diacid)]mimylin] ({C18 diacid}-EASELSTAALGRLSAELHELATLPRTETGPESP-NH2), the Solubility entry in series [2] (pH 3.0), in series [2] (pH 4.0), in series [2] (pH 5.0), in series [2] (pH 6.0), in series [2] (pH 6.5) and in series [2] (pH 7.0) was “≧200 μM” each time. In addition, the Solubility result in series [2] (pH 7.5) and in series [2] (pH 8.0) was “≧200 μM” each time.

Take `CC(=O)N[C@@H](C)C(=O)N[C@@H](CO)C(=O)N[C@@H](CCCCNC(=O)CC[C@H](NC(=O)CCCCCCCCCCCCCCCCCCC(=O)O)C(=O)O)C(=O)N[C@@H](CC(C)C)C(=O)N[C@@H](CO)C(=O)N[C@H](C(=O)N[C@@H](C)C(=O)N[C@@H](C)C(=O)N[C@@H](CC(C)C)C(=O)NCC(=O)N[C@@H](CCCNC(=N)N)C(=O)N[C@@H](CC(C)C)C(=O)N[C@@H](CO)C(=O)N[C@@H](C)C(=O)N[C@@H](CCC(=O)O)C(=O)N[C@@H](CC(C)C)C(=O)N[C@@H](Cc1c[nH]cn1)C(=O)N[C@@H](CCC(=O)O)C(=O)N[C@@H](CC(C)C)C(=O)N[C@@H](C)C(=O)N[C@H](C(=O)N[C@@H](CC(C)C)C(=O)N1CCC[C@H]1C(=O)N[C@@H](CCCNC(=N)N)C(=O)N[C@H](C(=O)N[C@@H](CCC(=O)O)C(=O)N[C@H](C(=O)NCC(=O)N[C@@H](CO)C(=O)NCC(=O)N[C@@H](CO)C(=O)N1CCC[C@H]1C(N)=O)[C@@H](C)O)[C@@H](C)O)[C@@H](C)O)[C@@H](C)O` [compound 68, [N-terminal(acetyl), des1, 4K(C20 diacid-gGlu), 30S, 31G]mimylin] (Ac-ASK([γGlu-C20 diacid])LSTAALGRLSAELHELATLPRTETGSGSP-NH2): the half-maximal inhibitory concentration (IC50) at rat calcitonin receptor was determined as 0.01 nM. In addition, the EC50 in series [1] amounted to 0.037 nM. Further, the solubility at 18 h is at least 200 µM in series [2] (bistrispropane buffer, pH 6.5); at least 200 µM in series [2] (bistrispropane buffer, pH 7.5); at least 200 µM in series [2] (bistrispropane buffer, pH 6.0); at least 200 µM in series [2] (bistrispropane buffer, pH 7.0); at least 200 µM in series [2] (bistrispropane buffer, pH 8.0); at least 200 µM in series [2] (glycylglycine buffer, pH 3.0). Further, the solubility at 18 h is at least 200 µM in series [2] (glycylglycine buffer, pH 4.0) and at least 200 µM in series [2] (glycylglycine buffer, pH 5.0).
